According to ChEMBL document CHEMBL1146424, “New Steroidal Alkaloids from the Roots of Buxus sempervirens” (1997):
Active and inactive are the calls of the source. The calls are words filed in the database; no cut-off is given here.

Legend:
[1] = tested on: Proteus vulgaris; assay: Antibacterial activity against Proteus vulgaris at 200 ug/100 uL by agar well diffusion assay; type: functional, organism-based
[2] = tested on: Lemna minor; assay: Phytotoxicity against Lemna minor L. at 5 ppm; type: functional
[3] = tested on: Salmonella typhi; assay: Antibacterial activity against Salmonella typhi at 200 ug/100 uL by agar well diffusion assay; type: functional, organism-based; conditions: Salmonella enterica subsp. enterica serovar Typhi
[4] = tested on: Proteus mirabilis; assay: Antibacterial activity against Proteus mirabilis at 200 ug/100 uL by agar well diffusion assay; type: functional, organism-based
[5] = tested on: Escherichia coli; assay: Antibacterial activity against Escherichia coli at 200 ug/100 uL by agar well diffusion assay; type: functional, organism-based
[6] = tested on: Epidermophyton floccosum; assay: Antifungal activity against Epidermophyton floccosum at […] after 7 days by tube dilution method; type: functional, organism-based
[7] = tested on: Lemna minor; assay: Phytotoxicity against Lemna minor L. at 500 ppm; type: functional
[8] = tested on: Lemna minor; assay: Phytotoxicity against Lemna minor L. at 50 ppm; type: functional
[9] = tested on: Shigella flexneri; assay: Antibacterial activity against Shigella flexnerii at 200 ug/100 uL by agar well diffusion assay; type: functional, organism-based
[10] = tested on: Stachybotrys chartarum; assay: Antifungal activity against Stachybotrys atra at […] after 7 days by tube dilution method; type: functional, organism-based
[11] = tested on: Microsporum canis; assay: Antifungal activity against Microsporum canis at […] after 7 days by tube dilution method; type: functional, organism-based

C[C@@H]([C@H]1[C@H](O)C[C@@]2(C)[C@@H]3CC[C@@H]4C(=CC[C@H](NC(=O)c5ccccc5)C4(C)C)CC3=CC[C@]12C)N(C)C [16ALPHA-HYDROXY-NA-BENZOYLBUXADINE]
Activity [1]: Active
Activity [2]: 20.3%
Activity [3]: Active
Activity [4]: Active
Activity [5]: Active
Activity [6]: Active
Activity [7]: 46%
Activity [8]: 28.6%
Activity [9]: Active
Activity [10]: Active
Activity [11]: Active
